Experiment: Plasma pharmacokinetics after a single subcutaneous administration of LEN
Format: in vivo, rhesus macaques
Settings: for concentration at 8 week: week 8 post dose; for concentration at 9 week: week 9 post dose; for concentration at 10 week: week 10 post dose; for concentration at 11 week: week 11 post dose; for concentration at 12 week: week 12 post dose; for concentration at 14 week: week 14 post dose
Method: All animals were housed at Bioqual Inc. For the in vivo SHIV stock titration study, 8 untreated outbred Indian-origin male rhesus macaques aged 3–5 years were challenged intrarectally per round for a total of 5 challenge rounds using increasing virus doses ranging from 0.625 to 100 TCID50, with the 100 TCID50 round performed twice for increased resolution (Supplemental Table 2). Plasma viral load was measured to confirm the infection status. […] Injection sites were monitored daily by veterinary staff for 2 weeks and then weekly through the end of study. On week 7, 11 animals were challenged by the intrarectal route with 1 mL RPMI containing 100 TCID50 SHIV-SF162P3. Whole blood was collected and processed into plasma and PBMCs as necessary for the assessment of routine hematology and clinical chemistry, viral load analysis, serology, and the bioanalysis of drug levels. Animals were considered protected if they remained SHIV negative by a plasma PCR assay and seronegative by enzyme immunoassay through week 10 after challenge.
Rhesus plasma samples were stored frozen at –80°C and thawed, and a 50 μL aliquot of each was treated with 200 μL acetonitrile containing an internal standard. After precipitation of the protein component, a 100 μL aliquot of the supernatant was transferred to a clean 96-well plate and mixed with 200 μL water. A 10 μL aliquot of the above solution was then injected into a Q-Exactive high resolution mass spectrometer from Thermo Electron with electrospray ionization in positive mode.

[1] = male, Indian-origin (outbred), rhesus monkey, plasma, subcutaneous, 5 mg/kg, Plasma LEN (Mean), 5 mg/kg sc
[2] = male, Indian-origin (outbred), rhesus monkey, plasma, subcutaneous, 10 mg/kg, Plasma LEN (Mean), 10 mg/kg sc
[3] = male, Indian-origin (outbred), rhesus monkey, plasma, subcutaneous, 20 mg/kg, Plasma LEN (Mean), 20 mg/kg sc

CC(C)(C#Cc1ccc(-c2ccc(Cl)c3c(NS(C)(=O)=O)nn(CC(F)(F)F)c23)c([C@H](Cc2cc(F)cc(F)c2)NC(=O)Cn2nc(C(F)(F)F)c3c2C(F)(F)[C@@H]2C[C@H]32)n1)S(C)(=O)=O [LEN, Lenacapavir]
Plasma LEN (animal V426, 75 mg/kg, week 10 post challenge): 38.56 nM | Plasma LEN (animal V426, 75 mg/kg, week 11 post challenge): 38.65 nM | Plasma LEN (animal V430, 50 mg/kg, week 0 post challenge): 117.17 nM | Plasma LEN (animal V430, 50 mg/kg, week 1 post challenge): 47.07 nM | Plasma LEN (animal V430, 50 mg/kg, week 2 post challenge): 55.06 nM | Plasma LEN (animal V430, 50 mg/kg, week 3 post challenge): 44.89 nM | Plasma LEN (animal V430, 50 mg/kg, week 4 post challenge): 40.12 nM | Plasma LEN (animal V430, 50 mg/kg, week 5 post challenge): 30.18 nM | Plasma LEN (animal V430, 50 mg/kg, week 6 post challenge): 23.37 nM | Plasma LEN (animal V430, 50 mg/kg, week 7 post challenge): 9.85 nM | Plasma LEN (animal V430, 50 mg/kg, week 8 post challenge): 6.90 nM | Plasma LEN (animal V430, 50 mg/kg, week 9 post challenge): 7.41 nM | Plasma LEN (animal V430, 50 mg/kg, week 10 post challenge): 7.29 nM | Plasma LEN (animal V430, 50 mg/kg, week 11 post challenge): 3.38 nM | Plasma LEN (animal V430, 50 mg/kg, week 12 post challenge): 2.44 nM | Plasma LEN (animal V430, 50 mg/kg, week 13 post challenge): 1.41 nM | Plasma LEN (animal V430, 50 mg/kg, week 14 post challenge): 1.81 nM | Plasma LEN (animal V430, 50 mg/kg, week 15 post challenge): 1.32 nM | Plasma LEN (animal V435, 75 mg/kg, week 7 post challenge): 3.85 nM | Plasma LEN (animal V435, 75 mg/kg, week 8 post challenge): 2.05 nM | Plasma LEN (animal V435, 75 mg/kg, week 9 post challenge): 2.10 nM | Plasma LEN (animal V435, 75 mg/kg, week 10 post challenge): 1.92 nM | Plasma LEN (animal V470, 50 mg/kg, week 0 post challenge): 100.49 nM | Plasma LEN (animal V470, 50 mg/kg, week 1 post challenge): 40.04 nM | Plasma LEN (animal V470, 50 mg/kg, week 2 post challenge): 48.42 nM | Plasma LEN (animal V470, 50 mg/kg, week 3 post challenge): 50.54 nM | Plasma LEN (animal V470, 50 mg/kg, week 4 post challenge): 46.19 nM | Plasma LEN (animal V470, 50 mg/kg, week 5 post challenge): 35.17 nM | Plasma LEN (animal V470, 50 mg/kg, week 6 post challenge): 44.02 nM | Plasma LEN (animal V470, 50 mg/kg, week 7 post challenge): 26.59 nM | Plasma LEN (animal V470, 50 mg/kg, week 8 post challenge): 17.23 nM | Plasma LEN (animal V470, 50 mg/kg, week 9 post challenge): 20.99 nM | Plasma LEN (animal V470, 50 mg/kg, week 10 post challenge): 19.02 nM | Plasma LEN (animal V470, 50 mg/kg, week 11 post challenge): 17.74 nM | Plasma LEN (animal V470, 50 mg/kg, week 12 post challenge): 12.55 nM | Plasma LEN (animal V470, 50 mg/kg, week 13 post challenge): 11.15 nM | Plasma LEN (animal V470, 50 mg/kg, week 14 post challenge): 8.52 nM | Plasma LEN (animal V470, 50 mg/kg, week 15 post challenge): 6.58 nM | Plasma LEN (animal V470, 50 mg/kg, week 16 post challenge): 6.37 nM | duration of plasma exposures above the paEC95 (8.8 nM) (eleven animals of the 3 highest dosing groups): over 10 weeks | concentration at 8 week [1]: 4.42 nM | concentration at 9 week [1]: 5.79 nM | concentration at 10 week [1]: 3.41 nM | concentration at 11 week [1]: 4.16 nM | concentration at 12 week [1]: 1.87 nM | concentration at 14 week [1]: 1.45 nM | concentration at 8 week [2]: 9.6 nM | concentration at 9 week [2]: 10.1 nM | concentration at 10 week [2]: 8.41 nM | concentration at 11 week [2]: 5.96 nM | concentration at 12 week [2]: 5.13 nM | concentration at 14 week [2]: 3.63 nM | concentration at 8 week [3]: 26.1 nM | concentration at 9 week [3]: 28 nM | concentration at 10 week [3]: 27.9 nM | concentration at 11 week [3]: 15 nM | concentration at 12 week [3]: 9.8 nM | concentration at 13 week (male, Indian-origin (outbred), rhesus monkey, plasma, subcutaneous, 20 mg/kg, Plasma LEN (Mean), 20 mg/kg sc, week 13 post dose): 11.7 nM | concentration at 14 week [3]: 7.07 nM | concentration at 15 week (male, Indian-origin (outbred), rhesus monkey, plasma, subcutaneous, 20 mg/kg, Plasma LEN (Mean), 20 mg/kg sc, week 15 post dose): 6.07 nM | concentration at 16 week (male, Indian-origin (outbred), rhesus monkey, plasma, subcutaneous, 20 mg/kg, Plasma LEN (Mean), 20 mg/kg sc, week 16 post dose): 4.07 nM | concentration at 17 week (male, Indian-origin (outbred), rhesus monkey, plasma, subcutaneous, 20 mg/kg, Plasma LEN (Mean), 20 mg/kg sc, week 17 post dose): 4.4 nM | concentration at 8 week (male, Indian-origin (outbred), rhesus monkey, plasma, subcutaneous, 50 mg/kg, Plasma LEN (Mean), 50 mg/kg sc): 53.7 nM
